Results as given in patent US20250346592A1 (Celgene Corporation, priority 2022, published 2025).

Biological target: hPAD4 enzyme (Homo sapiens (Human), UniProt Q9UM07)
Test: RFMS2 assay (RapidFire mass spectrometry, TSTGGRQGSHH peptide substrate)
Format: biochemical
Conditions: 35 nM recombinant human PAD4, 500 μM TSTGGRQGSHH peptide, 30 minutes at room temperature; read-out: RFMS 2 IC50
In short: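 IC50 derived from RapidFire LC-MS/MS (positive ESI MRM) of substrate versus product after a 30 min room-temperature reaction stopped with 10% formic acid. Reaction contained 35 nM human PAD4, 500 μM peptide, 2 mM CaCl2, 5 mM DTT at pH 7.4, and compounds diluted 3-fold from 20 μM.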

Sequence of hPAD4 enzyme (Q9UM07 whole entry): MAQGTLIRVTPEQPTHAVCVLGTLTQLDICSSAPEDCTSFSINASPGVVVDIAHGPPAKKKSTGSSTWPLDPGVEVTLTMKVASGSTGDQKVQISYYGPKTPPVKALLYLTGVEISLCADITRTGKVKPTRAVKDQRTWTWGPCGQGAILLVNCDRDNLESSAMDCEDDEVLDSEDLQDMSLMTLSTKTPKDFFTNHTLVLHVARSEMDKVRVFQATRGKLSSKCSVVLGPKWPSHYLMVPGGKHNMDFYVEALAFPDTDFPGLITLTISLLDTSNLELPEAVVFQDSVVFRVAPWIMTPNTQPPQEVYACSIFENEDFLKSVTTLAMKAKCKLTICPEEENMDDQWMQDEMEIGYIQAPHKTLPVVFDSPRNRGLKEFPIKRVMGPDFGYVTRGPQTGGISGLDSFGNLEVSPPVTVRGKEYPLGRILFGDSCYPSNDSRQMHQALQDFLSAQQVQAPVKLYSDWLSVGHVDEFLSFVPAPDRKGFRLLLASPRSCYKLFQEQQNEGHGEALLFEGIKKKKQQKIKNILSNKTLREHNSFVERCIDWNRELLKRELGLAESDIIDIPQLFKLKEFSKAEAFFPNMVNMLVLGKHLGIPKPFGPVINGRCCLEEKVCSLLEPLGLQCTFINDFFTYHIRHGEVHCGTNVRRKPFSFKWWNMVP

IC50 [µM] | Compound
> 1 | CN(C)CCOc1cccc2cc(-c3nc4cc5c(cc4n3C)CCN(C[C@H](N)CF)C5=O)n(CC3CC3)c12 [Example 154, (S)-6-(2-amino-3-fluoropropyl)-2-(1-(cyclopropyl-methyl)-7-(2-(dimethylamino)ethoxy)-1H-indol-2-yl)-1-methyl-1,6,7,8-tetrahydro-5H-imidazo[4,5-g] isoquinolin-5-one]
0.101 to 0.5 | Cn1c(-c2cc3cccc(OCCc4ccon4)c3n2CC2CC2)nc2cc3c(cc21)CCN(C[C@H](N)CF)C3=O [Example 170, (S)-6-(2-amino-3-fluoropropyl)-2-(1-(cyclopropyl-methyl)-7-(2-(isoxazol-3-yl)ethoxy)-1H-indol-2-yl)-1-methyl-1,6,7,8-tetrahydro-5H-imidazo[4,5-g] isoquinolin-5-one]
0.101 to 0.5 | Cn1c(-c2cc3cccc(OCCO)c3n2Cc2ccno2)nc2cc3c(cc21)CCN(C[C@H](N)CF)C3=O [Example 218, (S)-6-(2-amino-3-fluoropropyl)-2-(7-(2-hydroxyethoxy)-1-(isoxazol-5-ylmethyl)-1H-indol-2-yl)-1-methyl-1,6,7,8-tetrahydro-5H-imidazo[4,5-g]isoquinolin-5-one]
0.101 to 0.5 | Cc1ccc2cc(-c3nc4cc5c(cc4n3C)CCN(C[C@@H](C)N)C5=O)n(CC3CC3)c2c1 [Example 29, (R)-6-(2-aminopropyl)-2-(1-(cyclopropylmethyl)-6-methyl-1H-indol-2-yl)-1-methyl-1,6,7,8-tetrahydro-5H-imidazo[4,5-g]isoquinolin-5-one]
0.101 to 0.5 | COc1ccc2cc(-c3nc4cc5c(cc4n3C)CCN(C[C@H](N)CF)C5=O)n(Cc3ccno3)c2c1 [Example 112, (S)-6-(2-amino-3-fluoropropyl)-2-(1-(isoxazol-5-ylmethyl)-6-methoxy-1H-indol-2-yl)-1-methyl-1,6,7,8-tetrahydro-5H-imidazo[4,5-g]isoquinolin-5-one]
> 1 | CN(C)c1cccc2cc(-c3nc4cc5c(cc4n3C)CCN(C[C@H](N)CF)C5=O)n(CC3CC3)c12 [Example 69, (S)-6-(2-amino-3-fluoropropyl)-2-(1-(cyclopropylmethyl)-7-(dimethylamino)-1H-indol-2-yl)-1-methyl-1,6,7,8-tetrahydro-5H-imidazo[4,5-g]isoquinolin-5-one]
0.101 to 0.5 | C[C@@H](N)CN1CCc2cc3c(cc2C1=O)nc(-c1cc2ccccc2n1CC1CCC1)n3C [Example 71, (R)-6-(2-aminopropyl)-2-(1-(cyclobutylmethyl)-1H-indol-2-yl)-1-methyl-1,6,7,8-tetrahydro-5H-imidazo[4,5-g]isoquinolin-5-one]
0.011 to 0.1 | Cn1c(-c2cc3cccc(OC[C@H]4CNC(=O)O4)c3n2CC2CC2)nc2cc3c(cc21)CCN(C[C@H](N)CF)C3=O [Example 168, (R)-5-(((2-(6-((S)-2-amino-3-fluoropropyl)-1-methyl-5-oxo-5,6,7,8-tetrahydro-1H-imidazo [4,5-g]isoquinolin-2-yl)-1-(cyclopropylmethyl)-1H-indol-7-yl)oxy)methyl)oxazolidin-2-one]
> 1 | Cn1c(-c2cc3ccc(C(=O)O)cc3n2CC2CC2)nc2cc3c(cc21)CCN(C[C@H](N)CF)C3=O [Example 67, (S)-2-(6-(2-amino-3-fluoropropyl)-1-methyl-5-oxo-5,6,7,8-tetrahydro-1H-imidazo[4,5-g]isoquinolin-2-yl)-1-(cyclopropylmethyl)-1H-indole-6-carboxylic acid]
> 1 | C[C@@H](N)CN1CCc2cc3c(cc2C1=O)nc(-c1cc2ccnc(Cl)c2n1CC1CC1)n3C [Example 22, (R)-6-(2-aminopropyl)-2-(7-chloro-1-(cyclopropylmethyl)-1H-pyrrolo[2,3-c]pyridin-2-yl)-1-methyl-1,6,7,8-tetrahydro-5H-imidazo[4,5-g]isoquinolin-5-one]
> 1 | Cn1c(-c2cc3cccc(OC[C@@H]4COCCN4)c3n2CC2CC2)nc2cc3c(cc21)CCN(C[C@H](N)CF)C3=O [Example 187, 6-((S)-2-amino-3-fluoropropyl)-2-(1-(cyclopropylmethyl)-7-(((S)-morpholin-3-yl)methoxy)-1H-indol-2-yl)-1-methyl-1,6,7,8-tetrahydro-5H-imidazo[4,5-g]isoquinolin-5-one]
0.501 to 1 | Cn1cc(Cn2c(-c3nc4cc5c(cc4n3C)CCN(C[C@H](N)CF)C5=O)cc3ccccc32)cn1 [Example 95, (S)-6-(2-amino-3-fluoropropyl)-1-methyl-2-(1-((1-methyl-1H-pyrazol-4-yl)methyl)-1H-indol-2-yl)-1,6,7,8-tetrahydro-5H-imidazo[4,5-g]isoquinolin-5-one]
> 1 | Cn1c(-c2cc3cccnc3n2Cc2ccno2)nc2cc3c(cc21)CCN(C[C@H](N)CF)C3=O [Example 121, (S)-6-(2-amino-3-fluoropropyl)-2-(1-(isoxazol-5-ylmethyl)-1H-pyrrolo[2,3-b]pyridin-2-yl)-1-methyl-1,6,7,8-tetrahydro-5H-imidazo[4,5-g]isoquinolin-5-one]
0.101 to 0.5 | COC(=O)NC[C@@H](C)Oc1cccc2cc(-c3nc4cc5c(cc4n3C)CCN(C[C@H](N)CF)C5=O)n(CC3CC3)c12 [Example 200, methyl ((R)-2-((2-(6-((S)-2-amino-3-fluoropropyl)-1-methyl-5-oxo-5,6,7,8-tetrahydro-1H-imidazo[4,5-g]isoquinolin-2-yl)-1-(cyclopropylmethyl)-1H-indol-7-yl)oxy)propyl)carbamate]
0.011 to 0.1 | COc1cccc2cc(-c3nc4cc5c(cc4n3C)CCN(C[C@H](N)CF)C5=O)n(Cc3ccno3)c12 [Example 111, (S)-6-(2-amino-3-fluoropropyl)-2-(1-(isoxazol-5-ylmethyl)-7-methoxy-1H-indol-2-yl)-1-methyl-1,6,7,8-tetrahydro-5H-imidazo[4,5-g]isoquinolin-5-one]
0.101 to 0.5 | CCc1ccc2cc(-c3nc4cc5c(cc4n3C)CCN(C[C@@H](C)N)C5=O)n(CC3CC3)c2c1 [Example 39, (R)-6-(2-aminopropyl)-2-(1-(cyclopropylmethyl)-6-ethyl-1H-indol-2-yl)-1-methyl-1,6,7,8-tetrahydro-5H-imidazo[4,5-g]isoquinolin-5-one]
0.101 to 0.5 | Cc1ccc2cc(-c3nc4cc5c(cc4n3C)CCN(C[C@@H](C)N)C5=O)n(CC3CC3)c2c1C [Example 16, (R)-6-(2-aminopropyl)-2-(1-(cyclopropylmethyl)-6,7-dimethyl-1H-indol-2-yl)-1-methyl-1,6,7,8-tetrahydro-5H-imidazo[4,5-g]isoquinolin-5-one]
0.101 to 0.5 | COc1cccc2cc(-c3nc4cc5c(cc4n3C)CCN(C[C@H](N)CF)C5=O)n(Cc3ocnc3C)c12 [Example 142, (S)-6-(2-amino-3-fluoropropyl)-2-(7-methoxy-1-((4-methyloxazol-5-yl)methyl)-1H-indol-2-yl)-1-methyl-1,6,7,8-tetrahydro-5H-imidazo[4,5-g]isoquinolin-5-one]
0.101 to 0.5 | COc1cccc2cc(-c3nc4cc5c(cc4n3C)CCN(C[C@H](N)CF)C5=O)n(Cc3cnccn3)c12 [Example 128, (S)-6-(2-amino-3-fluoropropyl)-2-(7-methoxy-1-(pyrazin-2-ylmethyl)-1H-indol-2-yl)-1-methyl-1,6,7,8-tetrahydro-5H-imidazo[4,5-g]isoquinolin-5-one]
0.101 to 0.5 | COc1ccc2cc(-c3nc4cc5c(cc4n3C)CCN(C[C@@H](C)N)C5=O)n(CC3CC3)c2n1 [Example 44, (R)-6-(2-aminopropyl)-2-(1-(cyclopropylmethyl)-6-methoxy-1H-pyrrolo[2,3-b]pyridin-2-yl)-1-methyl-1,6,7,8-tetrahydro-5H-imidazo[4,5-g]isoquinolin-5-one]
0.101 to 0.5 | C[C@@H](N)CN1CCc2cc3c(cc2C1=O)nc(-c1cc2cccc(Cl)c2n1CC1CC1)n3C [Example 33, (R)-6-(2-aminopropyl)-2-(7-chloro-1-(cyclopropylmethyl)-1H-indol-2-yl)-1-methyl-1,6,7,8-tetrahydro-5H-imidazo[4,5-g]isoquinolin-5-one]
0.101 to 0.5 | Cn1c(-c2cc3cccc(OC[C@@H](O)C(F)(F)F)c3n2CC2CC2)nc2cc3c(cc21)CCN(C[C@H](N)CF)C3=O [Example 215, 6-((S)-2-amino-3-fluoropropyl)-2-(1-(cyclopropylmethyl)-7-((R)-3,3,3-trifluoro-2-hydroxypropoxy)-1H-indol-2-yl)-1-methyl-1,6,7,8-tetrahydro-5H-imidazo[4,5-g]isoquinolin-5-one]
0.501 to 1 | Cn1c(-c2cc3cccc(OC[C@@H]4CNCCO4)c3n2CC2CC2)nc2cc3c(cc21)CCN(C[C@H](N)CF)C3=O [Example 159, 6-((S)-2-amino-3-fluoropropyl)-2-(1-(cyclopropyl-methyl)-7-(((S)-morpholin-2-yl)methoxy)-1H-indol-2-yl)-1-methyl-1,6,7,8-tetrahydro-5H-imidazo[4,5-g] isoquinolin-5-one]
0.101 to 0.5 | COc1cccc2cc(-c3nc4cc5c(cc4n3C)CCN(C[C@H](N)CF)C5=O)n(Cc3ccco3)c12 [Example 141, (S)-6-(2-amino-3-fluoropropyl)-2-(1-(furan-2-ylmethyl)-7-methoxy-1H-indol-2-yl)-1-methyl-1,6,7,8-tetrahydro-5H-imidazo[4,5-g]isoquinolin-5-one]
0.101 to 0.5 | COCC(C)c1ccc2cc(-c3nc4cc5c(cc4n3C)CCN(C[C@@H](C)N)C5=O)n(CC3CC3)c2c1 (single isomer, unassigned) [Example 41]
0.501 to 1 | COc1nccc2cc(-c3nc4cc5c(cc4n3C)CCN(C[C@@H](C)N)C5=O)n(CC3CC3)c12 [Example 31, (R)-6-(2-aminopropyl)-2-(1-(cyclopropylmethyl)-7-methoxy-1H-pyrrolo[2,3-c]pyridin-2-yl)-1-methyl-1,6,7,8-tetrahydro-5H-imidazo[4,5-g]isoquinolin-5-one]
